Tested on: hepatocytes
Experiment: Seq-Well scRNA-Seq of hepatocytes after APAP overdose (signature scores, DEG vs untreated)
Format: in vivo, mouse
Details: A6 vs UT

CC(=O)Nc1ccc(O)cc1 [APAP, acetaminophen]
Gstz1 pct.1: 0.73 | Gtf2a2 A6logFC: 0.2792 | Gtf2a2 avg_logFC: 0.2792 | Gtf2a2 pct.1: 0.379 | Gtpbp4 avg_logFC: 0.4822 | Gtpbp4 pct.1: 0.477 | Gulo avg_logFC: −0.8017 | H2-Ab1 avg_logFC: 0.461 | H2-Ab1 pct.1: 0.158 | H2-D1 A6logFC: 0.2865 | H2-D1 avg_logFC: 0.2865 | H2-D1 pct.1: 0.766 | H2-Eb1 avg_logFC: 0.3279 | H2-Eb1 pct.1: 0.105 | H3f3b avg_logFC: 0.7029 | H6pd avg_logFC: 0.3437 | H6pd pct.1: 0.623 | Haao avg_logFC: −0.5912 | Hacl1 avg_logFC: −0.7069 | Hagh avg_logFC: −0.674 | Hba-a1 avg_logFC: 0.735 | Hba-a2 avg_logFC: 0.5535 | Hbb-bs avg_logFC: 2.862 | Hbb-bt avg_logFC: 1.43 | Hdac11 avg_logFC: −0.3368 | Hdac11 pct.1: 0.1 | Hdlbp avg_logFC: 0.3457 | Hdlbp pct.1: 0.737 | Heatr1 avg_logFC: 0.406 | Heatr1 pct.1: 0.291 | Hebp1 avg_logFC: −0.6354 | Hectd1 A6logFC: 0.308 | Hectd1 avg_logFC: 0.308 | Hectd1 pct.1: 0.547 | Herc1 A6logFC: 0.2562 | Herc1 avg_logFC: 0.2562 | Herc1 pct.1: 0.246 | Herc4 A6logFC: 0.2675 | Herc4 avg_logFC: 0.2675 | Herc4 pct.1: 0.332 | Herpud1 avg_logFC: −0.4976 | Herpud1 pct.1: 0.535 | Hes6 avg_logFC: −0.5613 | Hgd avg_logFC: −0.7586 | Hibadh avg_logFC: −0.4994 | Hibadh pct.1: 0.542 | Hic2 avg_logFC: 0.2898 | Hic2 pct.1: 0.15 | Hif1a avg_logFC: 0.5169 | Hilpda avg_logFC: 0.7786 | Hint1 avg_logFC: −0.6739 | Hint2 avg_logFC: −0.4243 | Hint2 pct.1: 0.425 | Hipk1 A6logFC: 0.2916 | Hipk1 avg_logFC: 0.2916 | Hipk1 pct.1: 0.337 | Hmgcr A6logFC: 0.4167 | Hmgcr avg_logFC: 0.4167 | Hmgcr pct.1: 0.425 | Hmox1 avg_logFC: 1.348 | Hnf4a avg_logFC: 0.8791 | Hnrnpdl avg_logFC: 0.398 | Hnrnpdl pct.1: 0.406 | Hnrnpu A6logFC: 0.3394 | Hnrnpu avg_logFC: 0.3394 | Hnrnpu pct.1: 0.625 | Hpd avg_logFC: −0.5182 | Hpgd avg_logFC: −0.3878 | Hpgd pct.1: 0.115 | Hpn A6logFC: −0.2686 | Hpn avg_logFC: −0.2686 | Hpn pct.1: 0.406 | Hpx avg_logFC: −0.3033 | Hpx pct.1: 0.988 | Hsbp1 A6logFC: −0.2867 | Hsd3b5 avg_logFC: −1.07 | Hsd17b13 avg_logFC: 0.6808 | Hsp90ab1 avg_logFC: 0.3227 | Hsp90ab1 pct.1: 0.916 | Hspb8 avg_logFC: 0.6339 | Iah1 A6logFC: −0.293 | Iah1 avg_logFC: −0.293 | Iah1 pct.1: 0.446 | Ier5 avg_logFC: 0.289 | Ier5 pct.1: 0.134 | Ifitm3 avg_logFC: −0.4251 | Ifitm3 pct.1: 0.587 | Igfbp2 avg_logFC: −0.299 | Igfbp2 pct.1: 0.68 | Iigp1 avg_logFC: 0.7688 | Il1b avg_logFC: 0.7429 | Il1r1 avg_logFC: 1.245 | Il4ra avg_logFC: 0.2574 | Il4ra pct.1: 0.248 | Il6st avg_logFC: 0.3168 | Il6st pct.1: 0.411 | Il13ra1 avg_logFC: 0.2785 | Il13ra1 pct.1: 0.294 | Impad1 A6logFC: 0.3227 | Impad1 avg_logFC: 0.3227 | Impad1 pct.1: 0.391 | Insig2 avg_logFC: 0.67 | Iqgap1 avg_logFC: 0.4554 | Iqgap1 pct.1: 0.162 | Itgb2 avg_logFC: 0.2723 | Itgb2 pct.1: 0.105 | Itih2 avg_logFC: 0.5011 | Ivns1abp A6logFC: 0.3566 | Jak1 avg_logFC: 0.6039 | Jmjd1c avg_logFC: 0.6366 | Kctd3 avg_logFC: 0.2608 | Kctd3 pct.1: 0.239 | Kdelr2 A6logFC: 0.3977 | Kdelr2 avg_logFC: 0.3977 | Kdelr2 pct.1: 0.484 | Kdm5a A6logFC: 0.3514 | Kdm5a avg_logFC: 0.3514 | Kdm5a pct.1: 0.308 | Khk avg_logFC: −0.4915 | Khk pct.1: 0.702 | Kif1b avg_logFC: 0.3718 | Kif1b pct.1: 0.527 | Kif5b avg_logFC: 0.5012 | Kif5b pct.1: 0.494 | Kif21a A6logFC: 0.4042 | Klf3 A6logFC: 0.2674 | Klf3 avg_logFC: 0.2674 | Klf3 pct.1: 0.301 | Klf6 avg_logFC: 0.7324 | Klf15 avg_logFC: −0.4518 | Klf15 pct.1: 0.208 | Kmo avg_logFC: −0.3844 | Kmo pct.1: 0.487 | Krt8 avg_logFC: 1.196 | Krt18 avg_logFC: 1.258 | Lactb2 avg_logFC: −0.5965 | Laptm5 avg_logFC: 0.3382 | Laptm5 pct.1: 0.124 | Lars2 avg_logFC: 1.392 | Lcn2 avg_logFC: 0.4122 | Lcn2 pct.1: 0.301 | Ldlr A6logFC: 0.282 | Ldlr avg_logFC: 0.282 | Ldlr pct.1: 0.432 | Lgals9 A6logFC: −0.27 | Lgals9 avg_logFC: −0.27 | Lgals9 pct.1: 0.621 | Lgmn avg_logFC: 0.4846 | Lgmn pct.1: 0.246 | Lifr avg_logFC: −0.6262 | Lipc A6logFC: −0.2548 | Lipc avg_logFC: −0.2548 | Lipc pct.1: 0.401 | Litaf avg_logFC: 0.3944 | Litaf pct.1: 0.451 | Lmo4 avg_logFC: 0.3205 | Lmo4 pct.1: 0.308 | Lonp2 avg_logFC: −0.4674 | Lonp2 pct.1: 0.561 | Lpgat1 avg_logFC: 0.5952 | Lpin2 avg_logFC: 0.6867 | Lrg1 avg_logFC: 0.4908 | Lrrc58 avg_logFC: 1.001 | Lrrc59 avg_logFC: 0.3772 | Lrrc59 pct.1: 0.422 | Lrrfip1 avg_logFC: 0.4459 | Lrrfip1 pct.1: 0.37 | Lsmd1 A6logFC: −0.3131 | Lyst avg_logFC: 0.4093 | Lyst pct.1: 0.31 | Lyz2 avg_logFC: 0.7322 | Maff avg_logFC: 0.3553 | Maff pct.1: 0.224 | Magi3 A6logFC: 0.27 | Magi3 avg_logFC: 0.27 | Magi3 pct.1: 0.303 | Malat1 avg_logFC: 0.9206 | Malat1 pct.1: 0.871 | Man2a1 avg_logFC: 0.4971 | Map2k3 avg_logFC: 0.4347 | Map2k3 pct.1: 0.427 | Map3k2 A6logFC: 0.2518 | Map3k2 avg_logFC: 0.2518 | Map3k2 pct.1: 0.265 | Mapk6 A6logFC: 0.2568 | Mapk6 avg_logFC: 0.2568 | Mapk6 pct.1: 0.303 | Mapkapk2 A6logFC: 0.3138 | Mapkapk2 avg_logFC: 0.3138 | Mapkapk2 pct.1: 0.396 | Mat1a avg_logFC: 0.7908 | Mat2a avg_logFC: 0.4826 | Mat2a pct.1: 0.487 | Mbl1 avg_logFC: −0.713 | Mbnl1 avg_logFC: 0.4513 | Mbnl1 pct.1: 0.492 | Mcee A6logFC: −0.3199 | Mcl1 avg_logFC: 0.5709 | Mcl1 pct.1: 0.573 | Mcm10 avg_logFC: −0.4874 | Mdn1 avg_logFC: 0.318 | Mdn1 pct.1: 0.251
